We go through 26 compounds from patent US9868717B2, “Tricyclic sulphonamide compounds and methods of making and using same” (Zafgen, Inc., priority 2012, dated 2018).

As usually defined, the IC50 is the concentration that inhibits the measured activity by half.

SMILES strings stand for the structures. Bounds are passed on as bounds.

One assay deals with T1, Human recombinant MetAP2 (Homo sapiens, UniProt P50579).
T1 construct: made in house; host or cells: Sf9 insect cells
T1 sequence (P50579 whole entry): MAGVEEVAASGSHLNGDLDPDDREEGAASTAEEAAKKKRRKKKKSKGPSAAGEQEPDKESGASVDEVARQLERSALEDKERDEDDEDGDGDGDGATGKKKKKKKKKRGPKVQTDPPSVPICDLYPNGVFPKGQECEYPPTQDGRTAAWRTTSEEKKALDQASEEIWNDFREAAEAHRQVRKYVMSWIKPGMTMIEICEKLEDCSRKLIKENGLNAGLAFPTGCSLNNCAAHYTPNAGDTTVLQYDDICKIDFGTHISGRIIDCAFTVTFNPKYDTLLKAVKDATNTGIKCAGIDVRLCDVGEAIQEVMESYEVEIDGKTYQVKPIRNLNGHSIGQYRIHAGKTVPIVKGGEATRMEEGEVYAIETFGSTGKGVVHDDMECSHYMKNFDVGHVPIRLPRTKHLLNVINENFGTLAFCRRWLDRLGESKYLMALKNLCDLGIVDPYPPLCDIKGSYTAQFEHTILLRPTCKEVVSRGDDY
Briefly: inhibition of recombinant human MetAP2 activity (MAS substrate, amino acid oxidase/Amplex red fluorescence). The assay is classed as biochemical. The conditions noted are these: manganese enzyme, 30 minutes at 25° C., pH 7.5, 0.75 mM MAS substrate, 1% DMSO. On the procedure: Compounds are tested for their capacity to inhibit recombinant human MetAP2 activity using the following assay.
Human recombinant MetAP2 expressed in Sf9 cells followed by affinity purification and EDTA treatment to remove endogenous active site cation was dialysed against MnCl2 to produce the manganese enzyme used in the assay. The assay was carried out for 30 minutes at 25° C. in 50 mM HEPES buffer containing 100 mM NaCl, pH 7.5 the presence of 0.75 mM Methionine-Alanine-Serine (MAS) substrate and 50 μg/ml amino acid oxidase using a dilution of purified MetAP2 giving >3-fold signal:noise. Cleavage of the substrate by MetAP2 and oxidation of free methionine by amino acid oxidase was detected and quantified using fluorescence generated by Amplex red (10-acetyl-3,7-dihydroxyphenoxazine) in combination with horseradish peroxidase which detects H2O2 released during the oxidation step. The fluorescent signal was detected using a multiwell fluorimeter. Compounds were diluted in DMSO prior to addition to assay buffer, the final DMSO concentration in the assay being 1%.
The IC50 is defined as the concentration at which a given compound achieves 50% inhibition of control. IC50 values are calculated using the XLfit software package (version 2.0.5).
On to `O=C(O)c1c(NS(=O)(=O)c2ccc(F)cc2CC2CN3CCC2CC3)ccc2c1OC[C@@H]1C[C@H]21` (stereo partly drawn) [Example 9, (1aR,7bS)-5-[2-(1-Azabicyclo[2.2.2]oct-3-ylmethyl)-4-fluorobenzenesulfonyl-amino]-1,1a,2,7b-tetrahydrocyclopropa[c]chromene-4-carboxylic acid], for which the IC50 is under 0.05 µM.

On to `CC(C)(O)CN1CC[C@@H](Cc2cc(F)ccc2S(=O)(=O)Nc2ccc3c(c2C(=O)O)OC[C@@H]2C[C@H]32)C1` [Example 8, (1aR,7bS)-5-{4-Fluoro-2-[(R)-1-(2-hydroxy-2-methylpropyl)pyrrolidin-3-ylmethyl]benzenesulfonylamino}-1,1a,2,7b-tetrahydrocyclopropa[c]chromene-4-carboxylic acid], for which the half-maximal inhibitory concentration (IC50) was under 0.05 µM.

`CCN(CC)CC(C)(C)Cc1cc(F)ccc1S(=O)(=O)Nc1ccc2c(c1C(=O)O)OC[C@@H]1C[C@H]21` [Example 5, (1aR,7bS)-5-[2-(3-Diethylamino-2,2-dimethylpropyl)-4-fluorobenzenesulfonyl-amino]-1,1a,2,7b-tetrahydrocyclopropa[c]chromene-4-carboxylic acid]: the IC50 was under 0.05 µM.

For `CCN(CC)CC1CC1c1cc(F)ccc1S(=O)(=O)Nc1ccc2c(c1C(=O)O)OC[C@@H]1C[C@H]21` (stereo partly drawn) [Example 1, (1aR,7bS)-5-[2-(2-Diethylaminomethylcyclopropyl)-4-fluorobenzenesulfonyl-amino]-1,1a,2,7b-tetrahydrocyclopropa[c]chromene-4-carboxylic acid], the IC50 is 0.05 to 0.5 µM.

Turning to `CCN1CC[C@@H](Cc2ccccc2S(=O)(=O)Nc2ccc3c(c2C(=O)O)OC[C@@H]2C[C@H]32)C1` [Example 31, (1aR,7bS)-5-[2-((3R)-1-Ethylpyrrolidin-3-ylmethyl)benzenesulfonylamino]-1,1a,2,7b-tetrahydrocyclopropa[c]chromene-4-carboxylic acid], the IC50 was under 0.05 µM.

On to `O=C(O)c1c(NS(=O)(=O)c2ccc(F)cc2CC2CC3CCCN3C2)ccc2c1OC[C@@H]1C[C@H]21` (stereo partly drawn) [Example 29, (1aR,7bS)-5-[4-Fluoro-2-(hexahydro-1H-pyrrolizin-2-ylmethyl)benzene-sulfonylamino]-1,1a,2,7b-tetrahydrocyclopropa[c]chromene-4-carboxylic acid], for which the half-maximal inhibitory concentration (IC50) is under 0.05 µM.

Take `O=C(O)c1c(NS(=O)(=O)c2ccc(F)cc2/C=C\[C@@H]2CCCN2)ccc2c1OC[C@@H]1C[C@H]21` [Example 24, (1aR,7bS)-5-{4-Fluoro-2-[(Z)-2-((S)-pyrrolidin-2-yl)ethenyl]benzenesulfonyl-amino}-1,1a,2,7b-tetrahydrocyclopropa[c]chromene-4-carboxylic acid]: the half-maximal inhibitory concentration (IC50) is under 0.05 µM.

`CC1(O)CCN(C/C=C\c2cc(F)ccc2S(=O)(=O)Nc2ccc3c(c2C(=O)O)OC[C@@H]2C[C@H]32)C1` (stereo partly drawn) [Example 20, (1aR,7bS)-5-{4-Fluoro-2-[(Z)-3-(3-hydroxy-3-methylpyrrolidin-1-yl)prop-1-enyl]benzenesulfonylamino}-1,1a,2,7b-tetrahydrocyclopropa[c]chromene-4-carboxylic acid]: the IC50 was under 0.05 µM.

On to `CCN1CCC/C(=C/c2cc(F)ccc2S(=O)(=O)Nc2ccc3c(c2C(=O)O)OC[C@@H]2C[C@H]32)C1` (single isomer, unassigned) [Example 13], for which the IC50 was in the range of 0.05 to 0.5 µM.

Take `O=C(O)c1c(NS(=O)(=O)c2ccc(F)cc2/C=C\CN2CC[C@@H](CO)C2)ccc2c1OC[C@@H]1C[C@H]21` [Example 26, (1aR,7bS)-5-{4-Fluoro-2-[(Z)-3-((R)-3-hydroxymethylpyrrolidin-1-yl)prop-1-enyl]benzenesulfonylamino}-1,1a,2,7b-tetrahydrocyclopropa[c]chromene-4-carboxylic acid]: the concentration for half-maximal inhibition (IC50) is under 0.05 µM.

In the case of `O=C(O)c1c(NS(=O)(=O)c2ccc(F)cc2/C=C2\CN3CCC2CC3)ccc2c1OC[C@@H]1C[C@H]21` (single isomer, unassigned) [Example 10], the 50% inhibitory concentration (IC50) was under 0.05 µM.

Consider `O=C(O)c1c(NS(=O)(=O)c2ccc(F)cc2/C=C2/CN3CCC2CC3)ccc2c1OC[C@@H]1C[C@H]21` (single isomer, unassigned) [Example 11], for which the IC50 is under 0.05 µM.

For the compound `CCN1CC[C@H](C(=O)NCc2cc(F)ccc2S(=O)(=O)Nc2ccc3c(c2C(=O)O)OC[C@@H]2C[C@H]32)C1` [Example 32, (1aR,7bS)-5-{2-[((S)-1-ethylpyrrolidine-3-carbonyl)aminomethyl]-4-fluoro-benzenesulfonylamino}-1,1a,2,7b-tetrahydrocyclopropa[c]chromene-4-carboxylic acid-formic acid (1:1)], the IC50 is under 0.05 µM.

In the case of `CCN1[C@@H]2CC[C@H]1C[C@H](Cc1cc(F)ccc1S(=O)(=O)Nc1ccc3c(c1C(=O)O)OC[C@@H]1C[C@H]31)C2` (single isomer, unassigned) [Example 19], the 50% inhibitory concentration (IC50) was under 0.05 µM.

Take `CCN1CC2C(C1)C2c1cc(F)ccc1S(=O)(=O)Nc1ccc2c(c1C(=O)O)OC[C@@H]1C[C@H]21` (stereo partly drawn) [Example 23, (1aR,7bS)-5-[2-(3-Ethyl-3-azabicyclo[3.1.0]hex-6-yl)-4-fluorobenzene-sulfonylamino]-1,1a,2,7b-tetrahydrocyclopropa[c]chromene-4-carboxylic acid]: the IC50 lay within 0.05 to 0.5 µM.

Take `CCN1[C@@H]2CC[C@H]1C[C@@H](Cc1cc(F)ccc1S(=O)(=O)Nc1ccc3c(c1C(=O)O)OC[C@@H]1C[C@H]31)C2` (single isomer, unassigned) [Example 18]: the half-inhibitory concentration (IC50) is under 0.05 µM.

`CC1(O)CCN(C/C=C\c2cc(F)ccc2S(=O)(=O)Nc2ccc3c(c2C(=O)O)OC[C@@H]2C[C@H]32)CC1` [Example 22, (1aR,7bS)-5-{4-Fluoro-2-[(Z)-3-(4-hydroxy-4-methylpiperidin-1-yl)prop-1-enyl]benzenesulfonylamino}-1,1a,2,7b-tetrahydrocyclopropa[c]chromene-4-carboxylic acid]: the 50% inhibitory concentration (IC50) lay in the range of 0.05 to 0.5 µM.

For `CCN1CCC/C(=C\c2cc(F)ccc2S(=O)(=O)Nc2ccc3c(c2C(=O)O)OC[C@@H]2C[C@H]32)C1` (single isomer, unassigned) [Example 12], the IC50 was under 0.05 µM.

With `CCN1CC[C@@H](NCCc2cc(F)ccc2S(=O)(=O)Nc2ccc3c(c2C(=O)O)OC[C@@H]2C[C@H]32)C1` [Example 33, (1aR,7bS)-5-{2-[2-((R)-1-ethylpyrrolidin-3-ylamino)ethyl]-4-fluoro-benzene-sulfonylamino}-1,1a,2,7b-tetrahydrocyclopropa[c]chromene-4-carboxylic acid-formic acid (1:1)], the IC50 is under 0.05 µM.

`CCN1CCCC(Cc2cc(F)ccc2S(=O)(=O)Nc2ccc3c(c2C(=O)O)OCC2CC32)C1` (single isomer, unassigned) [Example 14]: the IC50 was under 0.05 µM.

Take `CCN1CCC(NC(=O)Cc2cc(F)ccc2S(=O)(=O)Nc2ccc3c(c2C(=O)O)OC[C@@H]2C[C@H]32)C1` (stereo in doubt) [Example 30, (1aR,7bS)-5-{2-[((S)-1-Ethylpyrrolidin-3-ylcarbamoyl)methyl]-4-fluoro-benzenesulfonylamino}-1,1a,2,7b-tetrahydrocyclopropa[c]chromene-4-carboxylic acid]: the IC50 was under 0.05 µM.

`CCN1CCC[C@@H]1CCc1cc(F)ccc1S(=O)(=O)Nc1ccc2c(c1C(=O)O)OC[C@@H]1C[C@H]21` [Example 16, (1aR,7bS)-5-{2-[2-((S)-1-Ethylpyrrolidin-2-yl)ethyl]-4-fluorobenzene-sulfonylamino}-1,1a,2,7b-tetrahydrocyclopropa[c]chromene-4-carboxylic acid]: the IC50 was under 0.05 µM.

In the case of `O=C(O)c1c(NS(=O)(=O)c2ccc(F)cc2C[C@@H]2CCN(CCO)C2)ccc2c1OC[C@@H]1C[C@H]21` [Example 17, (1aR,7bS)-5-{4-Fluoro-2-[(R)-1-(2-hydroxyethyl)pyrrolidin-3-ylmethyl]-benzenesulfonylamino}-1,1a,2,7b-tetrahydrocyclopropa[c]chromene-4-carboxylic acid], the concentration for half-maximal inhibition (IC50) was under 0.05 µM.

For `O=C(O)c1c(NS(=O)(=O)c2ccc(F)cc2/C=C\CN2CC[C@H](CO)C2)ccc2c1OC[C@@H]1C[C@H]21` [Example 25, (1aR,7bS)-5-{4-Fluoro-2-[(Z)-3-((S)-3-hydroxymethylpyrrolidin-1-yl)prop-1-enyl]benzenesulfonylamino}-1,1a,2,7b-tetrahydrocyclopropa[c]chromene-4-carboxylic acid], the IC50 was under 0.05 µM.

The assay is the same for the next values; noted with them: manganese enzyme, 30 minutes at 25° C., pH 7.5, 0.75 mM MAS substrate, 1% DMSO; listed as First eluting enantiomer of (1aR,7bS)-5-[2-(2-diethylamino-methylcyclopropyl)-4-.
Take `CCN(CC)CC1CC1c1cc(F)ccc1S(=O)(=O)Nc1ccc2c(c1C(=O)O)OC[C@@H]1C[C@H]21` (some centres unmarked) [Example 2]: the IC50 is under 0.05 µM.

The same assay, now with this note: manganese enzyme, 30 minutes at 25° C., pH 7.5, 0.75 mM MAS substrate, 1% DMSO; listed as Second eluting enantiomer of (1aR,7bS)-5-[2-(2-diethylamino-methylcyclopropyl)-4.
`CCN(CC)CC1CC1c1cc(F)ccc1S(=O)(=O)Nc1ccc2c(c1C(=O)O)OC[C@@H]1C[C@H]21` (some centres unmarked) [Example 3]: the IC50 is 0.05 to 0.5 µM.
